Experimental data from patent publication KR20230169706A, “베타-카리오필렌을 포함하는 존속성 세균 억제용 조성물” (국민대학교산학협력단, priority 2022, dated 2023).
Entries after “also recorded” stand apart in the source; their conditions may differ.

System: persister cells of Staphylococcus aureus ATCC 6538 [황색포도상구균(Staphylococcus aureus ATCC 6538), 존속성 세균(persister cell)]
Experiment: Persister cell inhibition by beta-caryophyllene co-treated with antibiotics at 10x MIC (CFU count)
Type: cell-based

With C=C1CC/C=C(\C)CC[C@@H]2[C@@H]1CC2(C)C [베타-카리오필렌, β-caryophyllene] the “amount of persister cells” value (beta-caryophyllene 1 mM or more, each antibiotic (oxacillin, tobramycin, ciprofloxacin) at 10x MIC, 24 h) was “상당량 감소”, the “inhibition of persister cells” value (beta-caryophyllene 2 mM or more, all antibiotics (oxacillin, tobramycin, ciprofloxacin) at 10x MIC, 24 h, about 80% or more) was ≥ 80% and the “amount of persister cells” value (beta-caryophyllene 1 to 10 mM) was “크게 저하”. For the same compound, the “inhibitory effect on persister cells” value (beta-caryophyllene 2 to 10 mM, various antibiotics) was ≥ 80%, the “amount of persister cells” value (beta-caryophyllene together with antibiotic at 10x MIC, 24 h, no beta-caryophyllene concentration stated) was “존속성 세균의 양이 감소” and the “inhibition of persister cells” value (ciprofloxacin, weight ratio beta-caryophyllene:antibiotic about 10:1 to 100:1) was ≥ 80%. The “inhibition of persister cells” value (oxacillin, weight ratio beta-caryophyllene:antibiotic about 100:1 to 800:1) was ≥ 80%, the “inhibition of persister cells (in words)” value (persister cells not killed by oxacillin, tobramycin or ciprofloxacin, no beta-caryophyllene concentration stated) was “상당량 억제; also recorded: 효과적으로 억제; also recorded: 우수한 억제 활성” and the “inhibition of persister cells” value (tobramycin, weight ratio beta-caryophyllene:antibiotic about 5:1 to 30:1) was ≥ 80%.
